Source: patent US20180255816A1, “SWEETENERS HAVING ENHANCED ORGANOLEPTIC PROPERTIES” (CORNELL UNIVERSITY, priority 2015, published 2018)

What was measured:
[1] = biological target: bovine serum albumin (BSA) (Bos taurus, UniProt P02769); test: Saturation transfer difference (STD) NMR binding screen with BSA
Description: A first step is to assess binding of the protein to ligand under investigation. Saturation transfer difference (STD) NMR spectroscopy was utilized to screen ligands for binding to proteins. The method is based on the transfer of saturation from the protein to the bound ligands, which exchange into solution where they are detected as a reduction in the intensity of the free ligand signal. By subtracting the spectrum in which the protein is saturated from a spectrum without protein saturation produces a spectrum showing only the difference in which only the signals of the ligand(s) remain. This method was used to identify binding epitopes, because the ligand residues in direct contact with the protein show faster build-up of STD signals. This method involves a several-fold excess of ligand concentration over protein, allowing low […] protein concentrations to be used. […]
FIG. 2A is the pre-saturated 600 MHz ^1H NMR spectrum of a 2 mM rebaudioside A and 50 μM BSA in filtered orange juice with 10% D2O at 25° C. A STD spectrum (FIG. 2B) of 2 mM rebaudioside A and 50 μM BSA in filtered orange juice with on- and off-resonance saturation at 8.56 and 31 ppm, respectively was recorded to validate the stability of rebaudioside A—BSA complex in a natural and complex food matrix. […]

β-lactoglobulin = biological target: T1, β-lactoglobulin (Bos taurus, UniProt P02754); test: STD NMR binding with β-lactoglobulin; details: 1 mM rebaudioside A, 20 μM β-lactoglobulin, 40° C., pH 3
T1 sequence (P02754 17-178): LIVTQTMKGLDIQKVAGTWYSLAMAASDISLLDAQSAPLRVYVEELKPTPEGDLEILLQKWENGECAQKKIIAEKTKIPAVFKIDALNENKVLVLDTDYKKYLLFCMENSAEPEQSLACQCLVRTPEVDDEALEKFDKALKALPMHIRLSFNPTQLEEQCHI
Description: A first step is to assess binding of the protein to ligand under investigation. Saturation transfer difference (STD) NMR spectroscopy was utilized to screen ligands for binding to proteins. The method is based on the transfer of saturation from the protein to the bound ligands, which exchange into solution where they are detected as a reduction in the intensity of the free ligand signal. By subtracting the spectrum in which the protein is saturated from a spectrum without protein saturation produces a spectrum showing only the difference in which only the signals of the ligand(s) remain. This method was used to identify binding epitopes, because the ligand residues in direct contact with the protein show faster build-up of STD signals. This method involves a several-fold excess of ligand concentration over protein, allowing low […] protein concentrations to be used.
FIG. 8A is the solvent suppressed (WET) ^1H NMR spectrum of a sample containing 1 mM rebaudioside A and 20 μM β-lactoglobulin at 40° C. and pH 3. FIG. 8B is the STD spectrum of the same sample. Separate FIDs were stored with on-resonance saturation at 7.19 ppm and off-resonance saturation at −15 ppm.

panelists = test: Paired comparison taste test of organoleptic properties by 5 panelists; format: in vivo; details: taste panel, solution in 50 mL
Description: The following compositions were formulated and tested for their organoleptic properties through a paired comparison test by 5 panelists.

[2] = compared with dulcoside A; cited from earlier work

Chain of bovine serum albumin (BSA) (P02769 25-607): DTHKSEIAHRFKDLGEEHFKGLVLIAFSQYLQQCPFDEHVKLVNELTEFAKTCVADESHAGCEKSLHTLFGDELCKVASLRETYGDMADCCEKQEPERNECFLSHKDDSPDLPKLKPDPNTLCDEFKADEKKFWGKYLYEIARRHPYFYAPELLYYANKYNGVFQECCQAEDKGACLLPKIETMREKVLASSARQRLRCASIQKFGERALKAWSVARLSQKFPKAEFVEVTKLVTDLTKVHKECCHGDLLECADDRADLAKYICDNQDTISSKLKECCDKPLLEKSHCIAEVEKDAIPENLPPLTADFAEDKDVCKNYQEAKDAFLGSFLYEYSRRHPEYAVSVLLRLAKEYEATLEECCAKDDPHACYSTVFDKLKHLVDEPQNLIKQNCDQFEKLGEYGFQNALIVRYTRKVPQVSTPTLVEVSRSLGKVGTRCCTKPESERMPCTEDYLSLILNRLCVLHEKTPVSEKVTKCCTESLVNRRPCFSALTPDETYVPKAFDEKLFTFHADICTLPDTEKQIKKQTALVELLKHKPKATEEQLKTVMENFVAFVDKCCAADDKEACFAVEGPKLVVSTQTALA

Compound: rebaudioside A
- binding to BSA by STD spectrum ([1]; 1 mM rebaudioside A, 20 μM BSA, D2O, pH 3.0, 40° C., saturation at 7.19 ppm): binds to BSA
- binding to BSA by STD spectrum in food matrix ([1]; 2 mM rebaudioside A, 50 μM BSA, filtered orange juice with 10% D2O, 25° C.): specific binding between Rebaudioside A and BSA occurs
- binding to β-lactoglobulin by STD spectrum (β-lactoglobulin): capable of binding to β-lactoglobulin
- Quality: bitter after taste (panelists): sweetness and bitter after taste
- Quality: onset of sweetness (panelists): Slow onset of sweetness

Compound: C=C1C[C@@]23CC[C@H]4[C@@](C)(CCC[C@@]4(C)C(=O)O[C@@H]4O[C@H](CO)[C@@H](O)[C@H](O)[C@H]4O[C@@H]4O[C@H](CO)[C@@H](O)[C@H](O)[C@H]4O)[C@@H]2CC[C@]1(O[C@@H]1O[C@H](CO)[C@@H](O)[C@H](O[C@@H]2O[C@H](CO)[C@@H](O)[C@H](O)[C@H]2O)[C@H]1O[C@@H]1O[C@H](CO)[C@@H](O)[C@H](O)[C@H]1O)C3 [rebaudioside D]
- bitterness relative to dulcoside A [2]: two-thirds less bitter
- sweetness relative to dulcoside A [2]: around five times sweeter
